Data on 2 compounds can be found in patent publication US20210267996A1, “Compounds for inhibition of inflammation” (Children`s Medical Center Corporation, priority 2018, published 2021).

The structures appear in SMILES notation.

The subject of assay [1] is IL-1β. As to the kind of experiment: IL-1β secretion by ELISA, iBMDM with LPS transfection. The settings on record: 40 μM. It is filed as cell-based, mouse. How it is done:
Measurement of cytokines: concentrations of IL-1 (3 in culture supernatants or mouse serum were measured by ELISA kit (R&D Systems) according to the manufacturer's instructions. […] The number of surviving cells was determined by CellTiter-Glo assay (FIGS. 4 and 6) and IL-1β in culture supernatants was assessed by ELISA (FIG. 8) 2 hrs later. […] The number of surviving cells was determined by CellTiter-Glo assay (FIGS. 5 and 7) and IL-1β in culture supernatants was assessed by ELISA (FIG. 9) 2.5 hrs later.

Assay [2] addresses C38A GSDMD (Homo sapiens, UniProt P57764, C38A). As to the kind of experiment: Liposome leakage assay, C38A GSDMD plus caspase-11. It is filed as biochemical.
Protocol: Liposome leakage assay: fluorogenic liposome leakage assay detects leakage of Tb^3+ from Tb^3+-loaded liposomes incubated with GSDMD and caspase-11 (See References 7 and 9). Liposome leakage was detected by an increase in fluorescence when Tb^3+ bound to dipicolinic acid (DPA) in Buffer C. […] The fluorescence intensity of the well was measured at 545 nm with an excitation of 276 nm 1 hr after addition of caspase-11 using a Perkin Elmer EnVision plate reader. The final percent inhibition was calculated as [(fluorescencetest compound−fluorescencenegative control)/(fluorescencepositive control−fluorescencenegative control)]×100, where a well with GSDMD without the test compound was used as positive control, and a well without caspase-11 was used as negative control.
Assay [3] concerns the target T1, caspase-1 (Homo sapiens, UniProt P29466).
T1 sequence (P29466 120-404): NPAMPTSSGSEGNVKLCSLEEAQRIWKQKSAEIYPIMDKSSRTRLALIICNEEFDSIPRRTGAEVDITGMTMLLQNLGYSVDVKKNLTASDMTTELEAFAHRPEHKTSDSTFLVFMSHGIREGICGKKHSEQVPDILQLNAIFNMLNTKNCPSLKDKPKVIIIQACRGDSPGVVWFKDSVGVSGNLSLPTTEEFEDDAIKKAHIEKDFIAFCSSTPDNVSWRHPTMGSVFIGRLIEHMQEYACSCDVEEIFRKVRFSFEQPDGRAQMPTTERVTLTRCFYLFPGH
The assay is described as follows: Caspase-1 inhibition assay (Ac-YVAD-AMC). It is filed as biochemical. As for the experimental part: Caspase-1 and caspase-11 inhibition assays: the fluorogenic assay for caspase-1 and caspase-11 activity is based on release of 7-amino-4-methylcoumarin (AMC) from the caspase substrate Ac-YVAD-AMC. Compounds (8 nM-50 μM) were incubated with 0.5 U of caspase-1 or caspase-11 for 30 min in assay buffer (20 mM HEPES, 150 mM NaCl) in 384-well plates (Corning 3820) before addition of Ac-YVAD-AMC (40 μM) to initiate the reactions. Reactions were monitored in a SpectraMax M5 plate reader (Molecular Devices, Sunnyvale, Calif. USA) with excitation/emission wavelengths at 350/460 nm. The fluorescence intensity of each reaction was recorded every 2 min for 2 hrs.
Fluorescence intensity at 460 nm was measured after excitation at 350 nm.

The test system of assay [4] is ASC specks. As to the kind of experiment: ASC speck formation in LPS-primed THP-1 cells plus nigericin. It is filed as cell-based, human. The settings on record: for ASC speck formation: 1 hr before nigericin. As for the experimental part:
(§1) Immunostaining and confocal microscopy: cells grown on coverslips were fixed for 15 min with 4% paraformaldehyde in PBS, permeabilized for 5 min in 0.1% Triton X-100 in PBS and blocked using 5% BSA for 1 hr. Then, cells were stained with the indicated primary antibodies followed by incubation with fluorescent-conjugated secondary antibodies (Jackson ImmunoResearch). Nuclei were counterstained with DAPI (4,6-diamidino-2-phenylindole) (Sigma-Aldrich). Slides were mounted using Aqua-Poly/Mount (Dako). Images were captured using a laser scanning confocal microscope (Olympus Fluoview FV1000 Confocal System) with a 63× water immersion objective and Olympus Fluoview software (Olympus). All confocal images are representative of three independent experiments.
Nigericin activates the assembly of the NLRP3 canonical inflammasome using an adaptor called apoptosis-associated speck-like protein containing a caspase recruitment domain (ASC), which can be visualized in immunofluorescent microscopy as specks. When LPS-primed THP-1 cells were treated with nigericin in the absence of inhibitors, ASC specks were detected in 30% of cells (FIG. 36). As expected, speck formation was not inhibited by z-VAD-fmk, since caspase activation occurs downstream of inflammasome assembly.
Cell death was determined by CytoTox96 assay. […] Cell death was determined by CytoTox96 assay. […] Shown are immunoblots of whole cell lysates harvested 0.5 hr later. […] Representative images of ASC specks (arrowheads) and mean±s.d. percent of cells with ASC specks analyzed 20 min later (FIG. 47). Whole cell lysates (WCL) and culture supernatants (Sup) were harvested 30 min after adding nigericin and immunoblotted with the indicated antibodies (FIG. 50). Caspase-1 activity was assayed 30 min after adding nigericin using a cell-permeable fluorescence dye FAM-YVAD-FMK (FIG. 52). […] Representative images of ASC specks (arrowheads) and mean±s.d. percent of cells with ASC specks analyzed 20 min later (FIGS. 48 and 49). Whole cell lysates (WCL) and culture supernatants (Sup), harvested 30 min after adding nigericin, were analyzed by immunoblot (FIG. 51). […] The Figures show representative confocal microscopy images and quantification of proportion of cells with GSDMD membrane staining and pyroptotic bubbles. Arrows indicate GSDMD staining of pyroptotic bubbles. […] FIGS. 57 and 58, dose response curve of the effect of Bay 11-7082 on caspase-1 (FIG. 57) and caspase-11 (FIG. 58) activity against a fluorescent peptide substrate. […] (FIG. 60). FIGS. 61 and 62 show dose response curve of the effect of Bay 11-7082 on liposome leakage induced by 0.3 μM human GSDMD-3C (FIG. 61) or mouse GSDMA3-3C (FIG. 62) plus 0.15 μM 3C protease. […] 2-fold dilutions of Bay 11-7082 from 5-40 μM were used. Graphs show the mean±s.d; data are representative of three independent experiments. *P<0.05, **P<0.01.

The test system of assay [5] is GSDMD pore formation. The assay is described as follows: GSDMD membrane staining and pyroptotic bubbles, immunofluorescence. The settings on record: 30 μM, 30 min after nigericin. It is filed as cell-based, human. How it is done: as §1
To assess which steps in NLRP3-mediated inflammation were inhibited post ASC speck formation, LPS-primed THP-1 cells were treated with vehicle or 30 μM z-VAD-fmk, disulfiram or Bay 11-7082 1 hr before adding nigericin, and cleavage and activation of caspase-1, GSDMD, and pro-IL-1β were analysed by immunoblot of whole cell lysates 30 min later (FIG. 50). Secretion of processed IL-1β was also assessed by immunoblot of culture supernatants. […] Because immunoblots are not quantitative, caspase-1 activity 30 min after adding nigericin was also assessed using a fluorescent substrate in intact cells. […] Next, the effect of z-VAD-fmk, disulfiram and Bay 11-7082 on LPS+nigericin-induced GSDMD pore formation was assessed by immunofluorescence microscopy using a monoclonal antibody that was generated that recognizes both uncleaved GSDMD and its pore form (FIGS. 53, 54, and 64-66). […]
Cell death was determined by CytoTox96 assay. […] Cell death was determined by CytoTox96 assay. […] Representative images of ASC specks (arrowheads) and mean±s.d. percent of cells with ASC specks analyzed 20 min later (FIG. 47). […] Caspase-1 activity was assayed 30 min after adding nigericin using a cell-permeable fluorescence dye FAM-YVAD-FMK (FIG. 52). […]

Sequence of C38A GSDMD (P57764 whole entry C38A): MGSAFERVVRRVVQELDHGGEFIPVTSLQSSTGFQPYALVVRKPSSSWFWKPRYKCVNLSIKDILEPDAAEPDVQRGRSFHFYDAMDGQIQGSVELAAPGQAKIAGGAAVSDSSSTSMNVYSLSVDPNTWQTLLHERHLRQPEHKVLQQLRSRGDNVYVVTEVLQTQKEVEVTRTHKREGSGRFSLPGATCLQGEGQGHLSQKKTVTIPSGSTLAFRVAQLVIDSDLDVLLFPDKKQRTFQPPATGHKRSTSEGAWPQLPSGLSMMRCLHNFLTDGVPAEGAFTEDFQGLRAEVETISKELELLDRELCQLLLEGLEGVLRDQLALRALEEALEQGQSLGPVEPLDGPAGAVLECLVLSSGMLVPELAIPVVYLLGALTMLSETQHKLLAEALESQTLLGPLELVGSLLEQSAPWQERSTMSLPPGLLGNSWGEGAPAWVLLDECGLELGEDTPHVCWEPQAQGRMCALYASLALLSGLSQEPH

On to `CCN(CC)C(=S)SSC(=S)N(CC)CC` [C-23, Tetraethylthiuram disulfide], for which the “LPS transfection-induced IL-1β secretion” value in assay [1] is reported as “potency comparable to the pan-caspase inhibitor z-VAD-fmk”. Moreover, the IC50 in assay [2] is around 300 nM; in assay [3] it was 150 ± 40 nM. The “effect of Cu(II) on caspase-1 inhibition” value in assay [3] (with Cu(II)) is on record as “did not strongly change”. Also, in assay [4] (1 μM with copper gluconate), the ASC puncta entry is given as “reduced ASC puncta”. The “cells with ASC specks” value in assay [4] (30 μM, 1 hour before nigericin) is given as “about 20 % of cells”. Besides, the ASC speck formation entry in assay [4] (30 μM) is on record as “inhibited ASC speck formation, but not completely”. The “GSDMD membrane staining and pyroptotic bubbles” value in assay [5] is recorded as “completely blocked”.

In the case of `Cc1ccc(S(=O)(=O)/C=C/C#N)cc1` [Bay 11-7082], in assay [3], the caspase-1 inhibition result is given as “inhibited”. Further, in assay [4] (30 μM), the ASC speck formation result is “inhibited ASC speck formation, but not completely”. Further, in assay [5], the “GSDMD membrane staining and pyroptotic bubbles” value was “completely blocked”.
